Columns and labels:
LOV-PAS = biological target: T1, LOV-PAS (Brucella abortus, UniProt Q2YKK7)
T1 construct: gene BAB2_0652

[1] = biological target: T2, LOV-PAS-HK (full-length LOV-HK) (Brucella abortus, UniProt Q2YKK7)
T2 construct: gene BAB2_0652
T2 sequence (Q2YKK7 15-489 limits assumed): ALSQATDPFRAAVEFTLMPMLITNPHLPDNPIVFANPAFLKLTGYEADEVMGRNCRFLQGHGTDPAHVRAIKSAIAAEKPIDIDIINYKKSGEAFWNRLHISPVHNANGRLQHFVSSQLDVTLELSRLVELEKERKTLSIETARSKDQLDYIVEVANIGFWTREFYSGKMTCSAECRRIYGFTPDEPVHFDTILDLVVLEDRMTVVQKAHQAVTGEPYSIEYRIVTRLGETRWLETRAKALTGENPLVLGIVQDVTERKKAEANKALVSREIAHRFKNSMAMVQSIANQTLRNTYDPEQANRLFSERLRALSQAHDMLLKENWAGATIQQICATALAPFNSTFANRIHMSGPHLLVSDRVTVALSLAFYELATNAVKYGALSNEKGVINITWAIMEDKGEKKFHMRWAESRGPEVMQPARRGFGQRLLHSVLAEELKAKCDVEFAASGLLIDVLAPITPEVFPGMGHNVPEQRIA

T1 sequence (Q2YKK7 15-273 limits assumed): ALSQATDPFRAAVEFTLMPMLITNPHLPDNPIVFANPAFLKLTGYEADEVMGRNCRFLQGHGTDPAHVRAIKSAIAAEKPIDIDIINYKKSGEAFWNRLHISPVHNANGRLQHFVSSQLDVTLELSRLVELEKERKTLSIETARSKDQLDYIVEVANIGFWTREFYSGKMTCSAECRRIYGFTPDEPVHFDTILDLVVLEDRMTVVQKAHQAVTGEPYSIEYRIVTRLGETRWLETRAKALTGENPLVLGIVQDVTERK

Cc1cc2nc3c(=O)[nH]c(=O)nc-3n(C[C@H](O)[C@H](O)[C@H](O)COP(=O)(O)O)c2cc1C [FMN]
X-ray crystal structure, 2.74 A (dark), 2.80 A (light) (LOV-PAS): the FMN ligand is clearly separated from the protein moiety in the electron density map | X-ray crystal structure 3.25 A [1]: the electron densities associated with the FMN chromophores are fused into the protein moiety

— PMC8092228 (mBio, 2021)
